These are literature values, as cited in patent publication EP4640075A1, “ORAL POUCHED PRODUCT WITH SELF-EMULSIFYING DELIVERY SYSTEM” (Nicoventures Trading Limited, priority 2024, dated 2025).

For the data set the following is noted: Values obtained from PubChem or calculated.

On to tocopherol succinate, for which the “log(P)*” value is given as 10.2.
